Like-named read-outs stand apart in the source and are kept apart here.
Assays:
[1] = test system: cultured human mast cells (CHMC); experiment: CHMC low cell density IgE activation: tryptase assay; format: cell-based; settings: anti-IgE stimulated, tryptase release, first symbol of cell
Protocol: Inhibition of degranulation was measured at both low and high cell density by quantifying the release of the granule specific factors tryptase, histamine and hexosaminidase. Inhibition of release and/or synthesis of lipid mediators was assessed by measuring the release of leukotriene LTC4 and inhibition of release and/or synthesis of cytokines was monitored by quantifying TNF-α, IL-6 and IL-13. Tryptase and hexosaminidase were quantified using fluorogenic substrates as described in their respective examples. Histamine, TNFα, IL-6, IL-13 and LTC4 were quantified using the following commercial ELISA kits: histamine (Immunotech #2015, Beckman Coulter), TNFα (Biosource #KHC3011), IL-6 (Biosource #KMC0061), IL-13 (Biosource #KHC0132) and LTC4 (Cayman Chemical #520211). The protocols of the various assays are provided below.
7.7.2 CHMC Low Cell Density IgE Activation: Tryptase and LTC4 Assays
To duplicate 96-well U-bottom plates (Costar 3799) add 65 ul of compound dilutions or control samples that have been prepared in MT [137 mM NaCl, 2.7 mM KCl, 1.8 mM CaCl2, 1.0 mM MgCl2, 5.6 mM Glucose, 20 mM Hepes (pH 7.4), 0.1% Bovine Serum Albumin, (Sigma A4503)] containing 2% MeOH and 1% DMSO. Pellet CHMC cells (980 rpm, 10 min) and resuspend in pre-warmed MT. Add 65 ul of cells to each 96-well plate. Depending on the degranulation activity for each particular CHMC donor, load 1000-1500 cells/well. Mix four times followed by a 1 hr incubation at 37° C. During the 1 hr incubation, prepare 6× anti-IgE solution [rabbit anti-human IgE (1 mg/ml, Bethyl Laboratories A80-109A) diluted 1:167 in MT buffer]. Stimulate cells by adding 25 ul of 6× anti-IgE solution to the appropriate plates. Add 25 ul MT to un-stimulated control wells. Mix twice following addition of the anti-IgE. Incubate at 37° C. for 30 minutes. During the 30 minute incubation, dilute the 20 mM tryptase substrate stock solution [(Z-Ala-Lys-Arg-AMC2TFA; Enzyme Systems Products, #AMC-246)] 1:2000 in tryptase assay buffer [0.1 M Hepes (pH 7.5), 10% w/v Glycerol, 10 uM Heparin (Sigma H-4898) 0.01% NaN3]. Spin plates at 1000 rpm for 10 min to pellet cells. Transfer 25 ul of supernatant to a 96-well black bottom plate and add 100 ul of freshly diluted tryptase substrate solution to each well. Incubate plates at room temperature for 30 min. Read the […] of the plates at 355 nm/460 nm on a spectrophotometric plate reader.

[2] = test system: cultured human mast cells (CHMC); experiment: CHMC low cell density ionomycin activation: tryptase assay; format: cell-based; settings: ionomycin stimulated, tryptase release
Protocol: To confirm that many of the quinoline compounds of the invention exert their inhibitory activity by blocking or inhibiting the early IgE receptor signal transduction cascade, many of the compounds were tested in cellular assays for ionomycin-induced degranulation, as described below.
7.8.1 CHMC Low Cell Density Ionomycin Activation: Tryptase Assay
Assays for ionomycin-induced mast cell degranulation were carried out as described for the CHMC Low Density IgE Activation assays (Section 7.7.2, supra), with the exception that during the 1 hour incubation, 6× ionomycin solution [5 mM ionomycin (Signma 1-0634) in MeOH (stock) diluted 1:416.7 in MT buffer ([…])] was prepared and cells were stimulated by adding 25 μl of the 6× ionomycin solution to the appropriate plates.

[3] = test system: mouse model of passive cutaneous anaphylaxis (PCA); settings: i.p., 30 minutes pretreatment time
Protocol: This model provides a direct measure of IgE-induced degranulation of tissue mast cells. In this model, IgE primed animals are exposed to an allergen challenge and the change in permeability of dermal vasculature that results from histamine release from mast cells is measured by change in the amount of dye leakage into surrounding tissue. Inhibition of mediator release by compounds that modulate mast cell degranulation is easily measured by extracting the dye from the tissue.
In the PCA assay mice are passively sensitized by intradermal injection with anti-dinitrophenol (DNP) IgE antibodies (Day-1). At predetermined times (5-60 minutes prior to challenge), animals are treated with the test agent (Day 0). The modulatory effect of the agent on cutaneous mast cell degranulation is measured following intravenous injection of DNP conjugated to human serum albumin (HSA-DNP), together with Evans blue dye. The resulting cross-linking of the IgE receptor and subsequent mast cell degranulation-induced increase in vascular permeability is determined by measuring the amount of dye extravasation into the tissue. Dye is extracted from the tissue by formamide, and the absorbance of this extract is read at 620 nm. The inhibitory effect of drug treatment is reported as the percent inhibition compared to vehicle treatment, that is, the percent reduction in A620. […]

[4] = second symbol of cell, read-out: CHMC -IONO
[5] = Homo sapiens, Mast cell, second symbol of cell, read-out: CHMC -IONO

SMILES	IC50 [1] [µM]	IC50 [2, 4] [µM]	also measured
Cc1noc(C)c1NC(=O)c1cc(-c2ccccc2)nc2ccccc12 [Compound 1]	> 10	> 10	
Cc1cc(NC(=O)c2c(-c3ccccc3)noc2C)c2ccccc2n1 [Compound 3]	> 10		
Cc1onc(-c2ccccc2)c1C(=O)Oc1ccnc2ccccc12 [Compound 5]	≤ 10	≤ 10	
Cc1onc(-c2ccccc2)c1C(=O)Oc1ccnc2cc(Cl)ccc12 [Compound 7]	≤ 10	≤ 10	
Cc1cc(OC(=O)c2c(-c3ccccc3)noc2C)c2ccccc2n1 [Compound 9, 5-Methyl-3-phenyl-4-isoxazolecarboxylic acid, 2-methyl-4-quinolinyl Ester]			IC50 ([1]; Homo sapiens, Mast cell): ≤ 10 µM; IC50 [2, 5]: ≤ 10 µM
Cc1cc(OC(=O)c2c(-c3ccccc3)noc2C)c2cc(F)ccc2n1 [Compound 11]	≤ 10	≤ 10	
Cc1onc(-c2ccccc2)c1C(=O)Oc1ccnc2cc(C(F)(F)F)ccc12 [Compound 13]	≤ 10	≤ 10	
Cc1onc(-c2ccccc2)c1C(=O)Oc1ccnc2c(C(F)(F)F)cccc12 [Compound 15]	≤ 10		
CCOC(=O)c1cnc2cc(C(F)(F)F)ccc2c1OC(=O)c1c(-c2ccccc2)noc1C [Compound 17]	≤ 10	≤ 10	
CCOC(=O)c1cc(OC(=O)c2c(-c3ccccc3)noc2C)c2ccccc2n1 [Compound 19]	≤ 10	≤ 10	
Cc1cc(OC(=O)c2c(C)noc2C)c2cc(F)ccc2n1 [Compound 21]	≤ 10		
Cc1cc(OC(=O)c2c(-c3c(F)cccc3Cl)noc2C)c2cc(F)ccc2n1 [Compound 23]	≤ 10		
Cc1cc(OC(=O)c2c(-c3ccccc3Cl)noc2C)c2cc(F)ccc2n1 [Compound 25]	≤ 10	≤ 10	
Cc1onc(-c2ccccc2)c1C(=O)Oc1cc(C(F)(F)F)nc2ccc(OC(F)(F)F)cc12 [Compound 27]	≤ 10	≤ 10	
Cc1noc(C)c1C(=O)Oc1cc(C(F)(F)F)nc2ccc(OC(F)(F)F)cc12 [Compound 29]	≤ 10	≤ 10	
Cc1onc(-c2c(F)cccc2Cl)c1C(=O)Oc1cc(C(F)(F)F)nc2ccc(OC(F)(F)F)cc12 [Compound 31]	≤ 10	≤ 10	
Cc1onc(-c2ccccc2Cl)c1C(=O)Oc1cc(C(F)(F)F)nc2ccc(OC(F)(F)F)cc12 [Compound 33]	≤ 10		
Cc1onc(-c2ccccc2)c1C(=O)Nc1ccnc2cc(C(F)(F)F)ccc12 [Compound 35, 5-Methyl-3-phenyl-N-(7-trifluoromethyl-4-quinolinyl)-4-isoxazolecarboxamide]			IC50 ([1]; Homo sapiens, Mast cell): ≤ 10 µM; IC50 [2, 5]: ≤ 10 µM

SMILES	IC50 [1] [µM]	IC50 [2, 4] [µM]	also measured
Cc1noc(C)c1C(=O)Nc1ccnc2cc(C(F)(F)F)ccc12 [Compound 37]	> 10	> 10	
Cc1onc(-c2c(F)cccc2Cl)c1C(=O)Nc1ccnc2cc(C(F)(F)F)ccc12 [Compound 39]	≤ 10		IC50 ([2]; read-out: CHMC -IONO (number printed instead of class symbol)): 30 µM
Cc1onc(-c2ccccc2Cl)c1C(=O)Nc1ccnc2cc(C(F)(F)F)ccc12 [Compound 41]	> 10	> 10	
Cc1onc(-c2ccccc2)c1NC(=O)c1cc(Cl)nc2ccc(Br)cc12 [Compound 43, 6-bromo-2-chloro-N-(5-methyl-3-phenylisoxazol-4-yl)-4-quinolinecarboxamide]			IC50 ([1]; Homo sapiens, Mast cell): ≤ 10 µM; IC50 [2, 5]: > 10 µM
Cc1noc(C)c1NC(=O)c1cc(Cl)nc2ccc(Br)cc12 [Compound 45]	≤ 10	> 10	
Cc1cc(C(=O)Nc2c(-c3ccccc3)noc2C)c2cc(F)ccc2n1 [Compound 47, 6-Fluoro-2-methyl-N-(5-methyl-3-phenylisoxazol-4-yl)-4-quinolinecarboxamide]			IC50 ([1]; Homo sapiens, Mast cell): ≤ 10 µM; IC50 [2, 5]: > 10 µM
Cc1cc(C(=O)Nc2c(C)noc2C)c2cc(F)ccc2n1 [Compound 49]	≤ 10	> 10	
Cc1onc(-c2ccccc2)c1C(=O)Oc1ccnc2ccc(OC(F)(F)F)cc12 [Compound 51]	≤ 10	≤ 10	
Cc1onc(-c2ccccc2Cl)c1C(=O)Oc1ccnc2ccc(OC(F)(F)F)cc12 [Compound 53]	≤ 10	≤ 10	
Cc1onc(-c2c(F)cccc2Cl)c1C(=O)Oc1ccnc2ccc(OC(F)(F)F)cc12 [Compound 57]	≤ 10	> 10	
Cc1onc(-c2ccccc2)c1NC(=O)c1cc(-c2ccccc2)nc2ccccc12 [Compound 61]	> 10	> 10	
Cc1onc(-c2ccccc2)c1NC(=O)c1ccnc2ccccc12 [Compound 63]	> 10	> 10	
Cc1onc(-c2ccccc2)c1NC(=O)c1cc(Nc2ccc3[nH]ccc3c2)nc2ccc(Br)cc12 [Compound 65]	≤ 10	> 10	
CNc1cc(NC(=O)c2c(-c3ccccc3)noc2C)c2cc(Br)ccc2n1 [Compound 67]	≤ 10	> 10	
Cc1onc(-c2ccccc2)c1NC(=O)c1cc(Nc2cccc(O)c2)nc2ccc(Br)cc12 [Compound 71, 6-Bromo-2-(3-hydroxyphenyl)amino-N-(5-methyl-3-phenylisoxazol-4-yl)-4-quinolinecarboxamide]			IC50 ([1]; Homo sapiens, Mast cell): ≤ 10 µM; IC50 [2, 5]: ≤ 10 µM
CN1CCC(=C2c3ccccc3C=Cc3ccccc32)CC1 [Cyproheptadine, cyproheptadine]			inhibition of the PCA response ([3]; 8 mg/kg, n=23 experiments): 61% +/−4
CN(C)CCOC(c1ccccc1)c1ccccc1 [diphenhydramine]			inhibition of the PCA response ([3]; highest dose 50 mg/kg): up to 86%

Source: US8008501B2, “Quinoline compounds and their uses” (Rigel Pharmaceuticals, Inc., priority 2003, dated 2011)
